Data as given in patent US10376586B2, “Method and compositions for solubilizing non-polar constituents” (Entourage Bioscience, LLC, priority 2016, dated 2019).

Experiments:
[1] = solubility / solubilization in the MCT carrier oil; details: for stable solution concentration in MCTs: MCTs (0.0-6.0% C6, 6.0-60% C8, 6.0-60% C10), stirring at 85 degrees Celsius for 5 minutes
Description: The process for solubilizing target compounds according to the disclosure comprises, in particular, the following steps: (a) preparation of a carrier liquid solution comprising a mixture of medium-chain triglycerides, an amount of this carrier liquid solution is used, the amount depending on the amount of target compound to be solubilized; (b) admixing the carrier liquid solution with the target compound; (c) and, optionally, admixing a stabilizing compound to the carrier liquid/target compound. In some cases, depending on the compound to be solubilized, solvents that dissolve both polar and non-polar compounds such as ethanol, methanol, acetonitrile, 1-butanol or isopropyl alcohol, may be added to encourage solubilization, and then removed by vacuum evaporation. As another aspect, during compounding, dry inert gas may be filtered through the mixture to remove moisture.
Riboflavin is known to have poor solubility in aqueous solutions and organic solvents. […] It may be desirable to solubilize a higher concentration of riboflavin in an ENDS. […] This mixture may then be added to MCTs (for example 0.0-6.0% C6, 6.0-60% C8, and/or 6.0-60% C10), homogenized for 5 minutes and subsequently heated to approximately 85 degrees Celsius at 250 mb (or 250 hPa) pressure in a rotary evaporator to drive off the methanol.
Another example may be sulbutiamine. Sulbutiamine is a disulfide dimer of thiamine. […] It may be desirable to provide sulbutiamine in an ENDS. […]

[2] = cited from earlier work
[3] = cited from earlier work; remark: listed apart in the source
[4] = cited from earlier work; remark: listed apart in the source
[5] = cited from earlier work; remark: listed apart in the source

CC(=C(CCOC(=O)C(C)C)SSC(CCOC(=O)C(C)C)=C(C)N(C=O)Cc1cnc(C)nc1N)N(C=O)Cc1cnc(C)nc1N (stereo in doubt) [sulbutiamine, reference compound]
stable solution concentration in MCTs [1]: 200 mg/mL
solubility in aqueous solutions ([2]; aqueous solutions): insoluble
solubility in fats [3]: highly soluble

CC1=C(/C=C/C(C)=C/C=C/C(C)=C/C=C/C=C(C)/C=C/C=C(C)/C=C/C2=C(C)C(=O)[C@@H](O)CC2(C)C)C(C)(C)C[C@H](O)C1=O [Astaxanthin]
quantity incorporated into the carrier oil by admixing [1]: < 2 mg/mL

C=C(C)[C@@H]1CCC(C)=C[C@H]1c1c(O)cc(CCCCC)cc1O [Cannabidiol, cannabidiol, reference compound]
solubilized amount in MCTs ([1]; MCTs, stirring at 45 to 65 degrees Celsius for 5 minutes): up to 80 percent v/v

CC1=CCCC(C)(C)C1/C=C/C(C)=C/C=C/C(C)=C/C=C/C=C(C)/C=C/C=C(C)/C=C/C1=C(C)CCCC1(C)C (stereo not drawn) [alpha-carotene]
quantity incorporated into the carrier oil by admixing [1]: < 2 mg/mL

CCCCCCCCCCCCCCCC(=O)OC[C@H](O)[C@H]1OC(=O)C(O)=C1O [ascorbyl palmitate]
stable solution concentration in MCTs [1]: 200 mg/mL

CC1=C[C@H](O)CC(C)(C)[C@H]1/C=C/C(C)=C/C=C/C(C)=C/C=C/C=C(C)/C=C/C=C(C)/C=C/C1=C(C)C[C@@H](O)CC1(C)C [lutein]
stable solution concentration in MCTs [1]: 200 mg/mL

CC(C)=CCC/C(C)=C/C=C/C(C)=C/C=C/C(C)=C/C=C/C=C(C)/C=C/C=C(C)/C=C/C=C(\C)CCC=C(C)C [lycopene]
stable solution concentration in MCTs [1]: 200 mg/mL

O=C(O)Cc1ccccc1 [phenylacetic acid]
pKa [4]: comparable to benzoic acid
log P (partition co-efficient) [5]: comparable to benzoic acid

Cc1cc2nc3c(=O)[nH]c(=O)nc-3n(C[C@H](O)[C@H](O)[C@H](O)CO)c2cc1C [riboflavin]
solubility in MCTs versus aqueous solutions [1]: an order of magnitude greater solubility
solubility in vegetable glycerin, propylene glycol and water ([2]; vegetable glycerin, propylene glycol and water): less than 0.2 mg/ml

C=C1CC[C@H](O)C/C1=C/C=C1\CCC[C@]2(C)[C@@H]([C@H](C)CCCC(C)C)CC[C@@H]12 [vitamin-D3]
miscibility with the carrier oil ([1]; simple admixing with the carrier oil): any proportion
